From publication PMC11909904 (Cardiovascular Diabetology, 2025)

Target: T1, GPR30 (Rattus norvegicus, UniProt O08878)
T1 sequence (O08878 1-375): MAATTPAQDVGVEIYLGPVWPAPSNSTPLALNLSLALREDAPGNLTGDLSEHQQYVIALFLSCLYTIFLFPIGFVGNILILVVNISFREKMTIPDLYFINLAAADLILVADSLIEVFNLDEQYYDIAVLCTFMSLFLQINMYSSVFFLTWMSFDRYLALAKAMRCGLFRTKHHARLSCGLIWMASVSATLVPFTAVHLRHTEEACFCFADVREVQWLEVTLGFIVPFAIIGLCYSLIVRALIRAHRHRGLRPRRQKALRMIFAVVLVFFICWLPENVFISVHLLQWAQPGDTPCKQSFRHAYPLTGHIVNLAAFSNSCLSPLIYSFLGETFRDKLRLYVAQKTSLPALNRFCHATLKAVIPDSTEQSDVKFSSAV
Assay: CETSA in intact RVECs and lysates
Assay type: biochemical
Details: 30 µM Rd (CETSA)

CC(C)=CCC[C@](C)(O[C@@H]1O[C@H](CO)[C@@H](O)[C@H](O)[C@H]1O)[C@H]1CC[C@]2(C)[C@@H]1[C@H](O)C[C@@H]1[C@@]3(C)CC[C@H](O[C@@H]4O[C@H](CO)[C@@H](O)[C@H](O)[C@H]4O[C@@H]4O[C@H](CO)[C@@H](O)[C@H](O)[C@H]4O)C(C)(C)[C@@H]3CC[C@]12C [Rd, Ginsenoside Rd]
CETSA: the incubation with Rd stabilized GPR30 in heat-denatured intact RVECs and cell lysates
